Test results published in patent publication US12570614B2, “Phenyl amino pyrimidine compounds and uses thereof” (GlaxoSmithKline LLC, priority 2007, dated 2026).

Tests used:
[1] = system: BaF3 TELJAK cells (BafT_J2); test: Cellular screening, BaF3 TELJAK2 cells (Alamar Blue); assay type: cell-based; conditions: Mus musculus, BaF3; 48-72 hr incubation; read-out: BafT_J2_IC50_μM
Protocol: (§1) For screening purposes, compounds were diluted in 96 well plates at a concentration of 20 μM. Plates were warmed at 37° C. for 30 minutes before the assay was performed.
A TEL/Jak2 fusion was generated by digestion of the TELPCR product with BamH I/Sal I restriction enzymes, digestion of the JAK2 PCR product with Sal I/Not I restriction enzymes, followed by ligation and subcloning of the ligation product into the mammalian expression Vector pTRE 2 (Clontech), which was prepared by digestion with BamH I—Not I restriction enzymes, to give the TEL/Jak2 fusion plasmid pTELJAK2.
(§2) The growth factor dependent myelomonocytic cell line BaF3 bearing the pTET-off plasmid (Clontech) was transfected with either pTELJAK2 or pTELJAK3, and the transfected cells were selected for growth-factor independent cell growth. The BaF3 wild-type cells were cultured in DMEM containing 10% FCS, 10% WEHI 3B conditioned medium. The BaF3 TELJAK cells ([…]) were cultured in DMEM 10% Tet-System Approved FBS (without WEHI 3B conditioned medium).
(§3) Cell suspensions were prepared by harvesting cells from culture (the cells used in this test were in late log phase growth with high viability.) Cells were diluted in the appropriate growth medium, as described above, to 1.1× final concentration (from 50,000 cell/mL to 200,000 cell/mL, depending on cell line).
(§4) Compounds to be tested were added (10 μL, 10× final concentration) to a flat bottomed 96-well plate. The cellular suspension (90 μL per well) was then added, and the plate incubated for 48-72 hr at 37° C., 5% CO2. Alamar Blue 10 μL per well was added and the plates returned to the incubator for a further 4-6 hours.
(§5) Result are given in table 2 where +++ is <1 μM, ++ is <5 μM and + is <20 μM

BaF3 wild-type cells = test: Cellular screening, BaF3 wild-type cells (Alamar Blue); assay type: cell-based; conditions: Mus musculus, 48-72 hr incubation, read-out: BAF3wt_IC50_μM
Protocol: as §1, §2, §3
as §4, with “hours. The plates were then read at 544 nm.” for “hours.”
as §5

CTLL2 = test: Cellular screening, CTLL2 cells (Alamar Blue); assay type: cell-based; conditions: Mus musculus, CTLL-2; 48-72 hr incubation; read-out: CTLL2_IC50_μM
Protocol: as §1, §3
as §4, with “hours. The plates were then read at 544 nm.” for “hours.”
as §5

human JAK2 = human JAK2 (Homo sapiens (Human), UniProt O60674); test: JAK2 kinase domain Alphascreen enzyme screening; assay type: biochemical; conditions: read-out: JAK2_IC50_nM
Chain of human JAK2 (O60674 849-1124): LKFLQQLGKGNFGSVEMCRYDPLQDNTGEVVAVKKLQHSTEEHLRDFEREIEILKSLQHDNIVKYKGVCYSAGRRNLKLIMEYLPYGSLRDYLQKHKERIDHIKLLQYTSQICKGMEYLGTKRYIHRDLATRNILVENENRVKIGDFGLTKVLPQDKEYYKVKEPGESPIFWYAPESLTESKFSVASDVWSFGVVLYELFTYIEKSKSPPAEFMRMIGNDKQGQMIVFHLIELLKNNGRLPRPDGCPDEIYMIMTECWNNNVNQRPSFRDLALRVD
Protocol: (§6) For screening purposes, compounds (in 100% DMSO) were warmed at 37° C. for at least 20 minutes before use. A […] stock was initially made in assay buffer, where the final concentration of DMSO was 0.3%. The stocks were then diluted in 384 well Optiplates (Packard) where the final concentration of the compound was 5 μM.
The kinase domain of human JAK2 was amplified from U937 mRNA using the polymerase chain reaction with the following primers: […]
The JAK2 PCR products were cloned into the pDest20 destination vector (Gibco). The JAK2 plasmid was then transformed into competent DH10Bac cells (Gibco), and the recombinant baculovirus was prepared via Sf9 insect cell transfection.
(§7) Baculovirus preparations from each of the JAK family members were infected into one litre of […] (Spodoptera frugiperda) cells (Invitrogen) grown in SF900II serum free medium (Invitrogen) to a cell density of approximately 2×10^6 cells/ml. Cells were infected with virus at a cell culture to virus stock ratio of 20:1. Cells were harvested and lysed 48 hours post infection. The GST-tagged JAK kinase domains were purified by affinity chromatography on a GSH agarose column (Scientifix).
Alphascreen phosphotyrosine acceptor beads followed by streptavidin donor beads at a concentration of 1/100 in stop buffer were added to each well under subdued light and incubated for 2-3 hours. The Alphascreen plates were read on a Packard Fusion Alpha instrument

human JAK3 = human JAK3 (Homo sapiens (Human), UniProt P52333); test: JAK3 kinase domain Alphascreen enzyme screening; assay type: biochemical; conditions: read-out: JAK3_ IC50_nM
Chain of human JAK3 (P52333 822-1111): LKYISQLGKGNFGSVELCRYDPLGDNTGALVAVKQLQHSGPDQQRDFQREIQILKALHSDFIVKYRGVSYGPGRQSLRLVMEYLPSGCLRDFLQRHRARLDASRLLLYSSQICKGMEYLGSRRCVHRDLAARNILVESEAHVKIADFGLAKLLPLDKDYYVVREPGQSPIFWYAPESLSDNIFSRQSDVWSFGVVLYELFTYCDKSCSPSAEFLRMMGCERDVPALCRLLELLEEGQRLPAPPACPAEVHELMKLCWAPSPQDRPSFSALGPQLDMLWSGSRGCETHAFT
Protocol: as §6
The kinase domain of human JAK3 was amplified from U937 mRNA using the polymerase chain reaction with the following primers: […]
The JAK3 PCR products were cloned into the pDest20 destination expression vector (Gibco). The JAK3 plasmid was then transformed into competent DH10Bac cells (Gibco), and the recombinant baculovirus was prepared via Sf9 insect cell transfection.
as §7
The compounds were then incubated with substrate in the presence of either […] ATP for 60 or 90 minutes. […] (final concentration 111 μM) or substrate-2 substrate with the sequence biotin-[…] [SEQ ID NO: 16] (final concentration 133 μM). Alphascreen phosphotyrosine acceptor beads followed by streptavidin donor beads at a concentration of 1/100 in stop buffer were added to each well under subdued light and incubated for 2-3 hours. The Alphascreen plates were read on a Packard Fusion Alpha instrument

IC50 [1] [µM]	IC50 (BaF3 wild-type cells) [µM]	IC50 (human JAK2) [µM]	IC50 (human JAK3) [µM]	Compound	IC50 (CTLL2) [µM]
> 20	> 20			CCOC(=O)c1ccc(-c2ccnc(Nc3ccc(N4CCOCC4)cc3)n2)cc1 [Compound 1, ethyl 4-(2-(4-morpholinophenyl-amino)pyrimidin-4-yl)benzoate]	> 20
> 20		< 0.5		N#Cc1cccc(-c2ccnc(Nc3ccc(N4CCOCC4)cc3)n2)c1 [Compound 5, 3-(2-(4-morpholinophenyl-amino)pyrimidin-4-yl)benzonitrile]	
		> 1		N#Cc1cc(-c2ccnc(Nc3ccc(N4CCOCC4)cc3)n2)ccc1F [Compound 7, 2-fluoro-5-(2-(4-morpholinophenyl-amino)pyrimidin-4-yl)benzonitrile]	
		< 0.5		COc1cc(Nc2nccc(-c3ccc(F)c(C#N)c3)n2)cc(OC)c1OC [Compound 8, 2-fluoro-5-(2-(3,4,5-trimethoxyphenyl-amino)pyrimidin-4-yl)benzonitrile]	
< 5	< 5	< 0.5	< 0.5	N#Cc1cc(-c2ccnc(Nc3ccc(N4CCOCC4)cc3)n2)ccc1O [Compound 9, 2-hydroxy-5-(2-(4-morpholinophenyl-amino)pyrimidin-4-yl)benzonitrile]	< 5
		< 0.1		Cc1cc(-c2ccnc(Nc3ccc(N4CCOCC4)cc3)n2)ccc1C(=O)NCC#N [Compound 11, N-(cyanomethyl)-2-methyl-4-(2-(4-morpholinophenyl-amino)pyrimidin-4-yl)benzamide]	< 5
> 20	> 20	> 1	> 1	COc1cc(-c2ccnc(Nc3ccc(N4CCOCC4)cc3)n2)ccc1C#N [Compound 16, 2-methoxy-4-(2-(4-morpholinophenyl-amino)pyrimidin-4-yl)benzonitrile]	> 20
< 5	< 20	< 0.5	< 1	O=C(NCc1ccncc1)c1ccc(-c2ccnc(Nc3ccc(N4CCOCC4)cc3)n2)cc1 [Compound 17, 4-(2-(4-morpholinophenyl-amino)pyrimidin-4-yl)-N-(pyridin-4-ylmethyl)benzamide]	> 20
< 5	> 20	< 0.5	< 1	O=C(NCc1cccnc1)c1ccc(-c2ccnc(Nc3ccc(N4CCOCC4)cc3)n2)cc1 [Compound 18, 4-(2-(4-morpholinophenyl-amino)pyrimidin-4-yl)-N-(pyridin-3-ylmethyl)benzamide]	< 20
> 20		> 1	> 1	N#Cc1ccc(-c2ccnc(Nc3ccc(N4CCOCC4)cc3)n2)cc1Cl [Compound 19, 2-chloro-4-(2-(4-morpholinophenyl-amino)pyrimidin-4-yl)benzonitrile]	
< 1	< 1	< 0.1	< 0.1	COc1cc(Nc2nccc(-c3ccc(C(=O)NCC#N)cc3)n2)cc(OC)c1OC [Compound 20, N-(cyanomethyl)-4-(2-(3,4,5-trimethoxyphenyl-amino)pyrimidin-4-yl)benzamide]	< 5
< 20	< 20	< 0.5	< 0.5	O=C(NCC1CCCO1)c1ccc(-c2ccnc(Nc3ccc(N4CCOCC4)cc3)n2)cc1 (centres unmarked) [Compound 21, 4-(2-(4-morpholinophenyl-amino)pyrimidin-4-yl)-N-((tetrahydrofuran-2-yl)methyl)benzamide]	< 20
> 20		> 1	< 0.5	O=C(Nc1cc[nH]n1)c1ccc(-c2ccnc(Nc3ccc(N4CCOCC4)cc3)n2)cc1 [Compound 22, 4-(2-(4-morpholinophenyl-amino)pyrimidin-4-yl)-N-(1H-pyrazol-3-yl)benzamide]	
		< 1	< 0.5	CC(C)(C#N)NC(=O)c1ccc(-c2ccnc(Nc3ccc(N4CCOCC4)cc3)n2)cc1 [Compound 23, N-(2-cyanopropan-2-yl)-4-(2-(4-morpholinophenyl-amino)pyrimidin-4-yl)benzamide]	
				N#CCNC(=O)c1ccc(-c2ccnc(Nc3ccc(N4CCSCC4)cc3)n2)cc1 [Compound 25, N-(cyanomethyl)-4-(2-(4-thiomorpholino-phenylamino)pyrimidin-4-yl)benzamide]	< 5
< 5	< 5	< 0.1	< 0.5	CS(=O)(=O)N(CC#N)c1ccc(-c2ccnc(Nc3ccc(N4CCOCC4)cc3)n2)cc1 [Compound 31, N-(cyanomethyl)-N-(4-(2-(4-morpholinophenyl-amino)pyrimidin-4-yl)phenyl)methane-sulfonamide]	< 5
< 1	< 5		< 0.1	N#CCNC(=O)c1ccc(-c2ccnc(Nc3ccc(N4CCC(O)CC4)cc3)n2)cc1 [Compound 36, N-(cyanomethyl)-4-(2-(4-(4-hydroxypiperidin-1-yl)phenylamino)pyrimidin-4-yl)benzamide]	< 5
< 1	< 5		< 0.1	Cc1cnc(Nc2ccc(N3CCC(CO)CC3)cc2)nc1-c1ccc(C(=O)NCC#N)cc1 [Compound 39, N-(cyanomethyl)-4-(2-(4-(4-(hydroxymethyl)piperidin-1-yl)phenylamino)-5-methylpyrimidin-4-yl)benzamide]	< 5
	< 5		< 0.5	CN1CCN(c2ccc(Nc3nccc(-c4ccc(C(=O)NCC#N)cc4)n3)cc2)CC1 [Compound 44, N-(cyanomethyl)-4-(2-(4-(4-methylpiperazin-1-yl)phenylamino)pyrimidin-4-yl)benzamide]	< 5
		< 0.1	< 0.1	COc1cc(-c2ccnc(Nc3ccc(N4CCOCC4)cc3)n2)ccc1C(=O)NCC#N [Compound 45, N-(cyanomethyl)-2-methoxy-4-(2-(4-morpholinophenyl-amino)pyrimidin-4-yl)benzamide]	< 1
	< 5			Cc1cnc(Nc2ccc(N3CCCC(O)C3)cc2)nc1-c1ccc(C(=O)NCC#N)cc1 (centres unmarked) [Compound 46]	< 1
	< 5			N#CCC(=O)Nc1ccc(-c2ccnc(Nc3ccc(N4CCOCC4)cc3)n2)cc1 [Compound 85, 2-cyano-N-(4-(2-(4-morpholinophenyl-amino)pyrimidin-4-yl)phenyl)acetamide]	< 1
	< 1	< 0.1		N#CCNC(=O)c1ccc(-c2ccnc(Nc3ccc(CN4CCS(=O)(=O)CC4)cc3)n2)cc1 [Compound 90]	< 20
		< 0.1	< 0.1	Cc1cnc(Nc2ccc(N3CCOCC3)cc2)nc1-c1ccc(C(=O)NCC#N)cc1 [Compound 92, N-(cyanomethyl)-4-(5-methyl-2-(4-morpholinophenyl-amino)pyrimidin-4-yl)benzamide]	< 1
